Measurements: patent publication US10017509B2, “Macrocylic pyrimidine derivatives” (Janssen Pharmaceutica NV, priority 2014, dated 2018)

Experiments:
EF2K [1] = target: T1, EF2K (Homo sapiens, UniProt O00418); assay: EF2K cell-based assay (P-EF2 AlphaLISA, 2-deoxyglucose stimulated MCF10A cells); settings: 2.5 mM 2-deoxyglucose stimulated, P-EF2 Thr56, pIC50 = -log IC50 (M), read-out: eEF2K_C_PThr56 pIC50 (converted)
T1 construct: host or cells: LN-229 cell lysate
T1 sequence (O00418 1-725): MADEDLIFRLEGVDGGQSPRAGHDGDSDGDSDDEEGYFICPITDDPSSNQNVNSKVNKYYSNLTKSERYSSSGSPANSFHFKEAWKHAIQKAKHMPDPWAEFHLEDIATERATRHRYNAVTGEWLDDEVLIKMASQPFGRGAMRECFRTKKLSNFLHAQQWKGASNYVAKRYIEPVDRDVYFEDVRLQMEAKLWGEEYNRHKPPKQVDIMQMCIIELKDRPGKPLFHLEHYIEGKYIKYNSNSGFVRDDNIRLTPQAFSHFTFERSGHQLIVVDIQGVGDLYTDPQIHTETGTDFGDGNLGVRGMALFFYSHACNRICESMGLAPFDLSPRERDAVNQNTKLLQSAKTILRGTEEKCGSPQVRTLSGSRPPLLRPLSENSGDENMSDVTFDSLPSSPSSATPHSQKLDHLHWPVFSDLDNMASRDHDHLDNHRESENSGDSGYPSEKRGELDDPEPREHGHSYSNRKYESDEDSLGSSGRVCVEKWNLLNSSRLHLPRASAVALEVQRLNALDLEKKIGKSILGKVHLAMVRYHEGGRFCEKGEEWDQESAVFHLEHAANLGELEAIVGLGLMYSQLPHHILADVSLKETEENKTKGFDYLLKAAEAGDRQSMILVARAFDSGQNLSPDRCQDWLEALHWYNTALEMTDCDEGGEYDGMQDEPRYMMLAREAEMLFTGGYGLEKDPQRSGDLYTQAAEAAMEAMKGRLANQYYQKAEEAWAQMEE
Outline: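 MCF10A cells, after 24 h culture, treated 1 h with compound then stimulated 4 h with 2.5 mM 2-deoxyglucose to activate AMPK. Lysates in M-PER with protease/phosphatase inhibitors assayed for P-EF2 by AlphaLISA; pIC50 = −log IC50 (M).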

EF2K [2] = target: T1, EF2K; assay: Biochemical EF2K lysate-based kinase assay (AlphaLISA p-eEF2 Thr56); settings: pIC50 = -log IC50 (M), read-out: eEF2K_C_alphalisa pIC50 (converted)
Outline: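 LN-229 glioblastoma lysate supplied both EF2K and eEF2 substrate; compound incubated 15 min at room temperature in pH 6.6 buffer with 10 mM Mg2+ and 10 mM ATP. EDTA-stopped; phospho-eEF2 Thr56 quantified by AlphaLISA sandwich, final read after overnight. Values as pIC50.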

[3] = target: Vps34 (PIK3C3 lipid kinase) (Homo sapiens, UniProt Q8NEB9); assay: Biochemical Vps34 lipid kinase assay (ADP-Glo); settings: for remaining activity at 1 µM: 1 h, single dose 1 μM compound, residual activity compared to control (DMSO), read-out: VPS34_1microM_% of cntrl; for IC50: serial half-log dilution 10 μM to 0.3 nM, pIC50 = -log IC50 (M)
Chain of Vps34 (PIK3C3 lipid kinase) (Q8NEB9 whole entry, species assumed): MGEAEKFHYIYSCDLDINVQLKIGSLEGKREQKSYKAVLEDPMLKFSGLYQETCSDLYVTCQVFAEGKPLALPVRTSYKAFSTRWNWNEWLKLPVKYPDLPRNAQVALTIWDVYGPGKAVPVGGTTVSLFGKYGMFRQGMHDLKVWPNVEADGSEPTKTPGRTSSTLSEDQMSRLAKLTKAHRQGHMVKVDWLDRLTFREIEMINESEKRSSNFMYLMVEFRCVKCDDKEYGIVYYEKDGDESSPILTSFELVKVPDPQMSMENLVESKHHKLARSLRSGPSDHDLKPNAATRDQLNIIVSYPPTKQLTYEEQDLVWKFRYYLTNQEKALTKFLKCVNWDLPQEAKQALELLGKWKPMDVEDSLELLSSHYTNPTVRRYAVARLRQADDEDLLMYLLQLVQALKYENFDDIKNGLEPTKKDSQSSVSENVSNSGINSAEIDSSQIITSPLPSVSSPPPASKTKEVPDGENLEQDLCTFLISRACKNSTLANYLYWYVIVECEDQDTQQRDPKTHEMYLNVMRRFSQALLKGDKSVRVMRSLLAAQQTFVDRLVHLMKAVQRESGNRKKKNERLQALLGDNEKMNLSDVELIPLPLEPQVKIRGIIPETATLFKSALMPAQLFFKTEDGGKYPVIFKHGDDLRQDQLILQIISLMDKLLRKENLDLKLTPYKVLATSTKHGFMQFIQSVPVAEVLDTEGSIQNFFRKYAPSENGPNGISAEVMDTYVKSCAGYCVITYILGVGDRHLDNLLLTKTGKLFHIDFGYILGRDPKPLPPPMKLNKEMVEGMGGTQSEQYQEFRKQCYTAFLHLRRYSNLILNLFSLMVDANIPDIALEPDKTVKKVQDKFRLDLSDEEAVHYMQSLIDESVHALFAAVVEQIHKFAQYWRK
Outline: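 ADP-Glo luminescence assay of PIK3C3 (7.6 nM) with 50 µM substrate and 20 µM ATP (apparent Km) in HEPES pH 7.5, 100 mM NaCl, 3 mM MnCl2, CHAPS, DTT; 60 min, 30 °C. Single dose 1 µM (residual activity vs DMSO) or half-log series 10 µM-0.3 nM giving pIC50.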

Row | SMILES | IC50 (EF2K [1]) | IC50 (EF2K [2]) | remaining activity at 1 µM [3] | IC50 [3]
1 | O=C1CN2CCN(CC2)Cc2cccc(c2)Nc2nccc(n2)-c2ccc(nc2)CN(CC2CCOCC2)CCN1 [Compound 39] | 3.09e-06 M | 1.2e-06 M | 30.7% | 
2 | O=C1CN2CCN(CC2)Cc2cccc(c2)Nc2nccc(n2)-c2ccc(nc2)CN(CC2CCCO2)CCN1 (stereo not shown) [Compound 40] | ~8.13e-07 M | 1.35e-07 M | 17.7% | 2.24e-07 M
3 | O=C1CN2CCN(CC2)Cc2cccc(c2)Nc2nccc(n2)-c2ccc(nc2)CN(CCOCC(F)(F)F)CCN1 [Compound 41] | 1.78e-06 M | ~4.47e-07 M | 30.8% | 
4 | COCCN1CCNC(=O)CN2CCN(CC2)Cc2cccc(c2)Nc2nccc(n2)-c2ccc(nc2)C1 [Compound 42] | 4.27e-07 M | 3.24e-08 M | 10.2% | 3.02e-07 M
5 | CCCN1CCNC(=O)CN2CCN(CC2)Cc2cccc(c2)Nc2nccc(n2)-c2ccc(nc2)C1 [Compound 43] | 1.91e-07 M | 6.17e-09 M | 4.32% | 1.07e-07 M
6 | O=C1CN2CCN(CC2)Cc2cccc(c2)Nc2nccc(n2)-c2ccc(nc2)CN(C(=O)C2CC2)CCN1 [Compound 44] | 2.4e-06 M | 8.51e-08 M | 10.2% | 3.02e-07 M
7 | C=CCN1CCNC(=O)CN2CCN(CC2)Cc2cccc(c2)Nc2nccc(n2)-c2ccc(nc2)C1 [Compound 45] | 2.19e-07 M | 7.94e-09 M |  | 1.66e-07 M
8 | O=C1CN2CCN(Cc3cccc(c3)Nc3nccc(n3)-c3ccc(nc3)NCCCN1)C(CO)C2 (stereo not shown) [Compound 46] | 4.9e-06 M | 1.66e-07 M | 3.73% | 2.69e-08 M
9 | CC1CN2CCN1CC(=O)NCCCNc1ccc(cn1)-c1ccnc(n1)Nc1cccc(c1)C2 (stereo not shown) [Compound 49] | 2.34e-06 M | 3.89e-07 M | 37.4% | 
10 | O=C1CN2CCN(Cc3cccc(c3)Nc3nccc(n3)-c3ccc(nc3)NCCCN1)C(C(F)(F)F)C2 (stereo not shown) [Compound 50] | 4.9e-06 M | 1.12e-07 M | 12.4% | 3.98e-07 M
11 | CN1CCCN(C)c2ccc(cn2)-c2ccnc(n2)Nc2cccc(c2)CN2CCN(CC1=O)CC2CO (stereo not shown) [Compound 51] | 1.55e-05 M | 1.55e-07 M | 14.6% | 4.79e-07 M
12 | N#CCCN1CCCNC(=O)CN2CCN(Cc3cccc(c3)Nc3nccc(n3)-c3ccc1nc3)C(CO)C2 (stereo not shown) [Compound 54] | > 3.02e-05 M | 9.12e-07 M | 4.02% | 8.51e-08 M
13 | COC(=O)C1CN2CCN1Cc1cccc(c1)Nc1nccc(n1)-c1ccc(nc1)N(C)CCCN(C)C(=O)C2 (stereo not shown) [Compound 55] | > 3.02e-05 M | 1.45e-07 M |  | 8.91e-07 M
14 | O=C1CN2CCCN(CC2)Cc2cccc(c2)Nc2nccc(n2)-c2ccc(nc2)NCCCN1 [Compound 56] | 4.47e-06 M | 4.07e-06 M | 3.19% | 1.26e-08 M
15 | CN1CCCN(C)c2ccc(cn2)-c2ccnc(n2)Nc2cccc(c2)CN2CCCN(CC2)CC1=O [Compound 57] | > 3.02e-05 M | 2.57e-06 M |  | 2.95e-07 M
16 | CC1CN2CCN1Cc1cccc(c1)Nc1nccc(n1)-c1ccc(nc1)N(C)CCCN(C)C(=O)C2 (stereo not shown) [Compound 58] | 2.09e-06 M | 1.17e-07 M | 15.9% | 4.27e-07 M
17 | NC(=O)C1CN2CCN1Cc1cccc(c1)Nc1nccc(n1)-c1ccc(nc1)NCCCNC(=O)C2 (stereo not shown) [Compound 59] | > 3.02e-05 M | 5.75e-07 M | 3.56% | 3.89e-08 M
18 | CC1CN2CCN1Cc1cccc(c1)Nc1nccc(n1)-c1ccc(nc1)NCCCNC(=O)C2 (stereo not shown) [Compound 60] | 2.75e-06 M | 1.78e-07 M | 6.55% | 6.46e-08 M
19 | CN1CCCN(C)c2ccc(cn2)-c2ccnc(n2)Nc2cccc(c2)CN2CCN(CC1=O)C(CCO)C2 (stereo not shown) [Compound 63] | > 3.02e-05 M | 2.4e-07 M | 16.4% | 3.24e-07 M
20 | CN1CCCN(C)c2ccc(cn2)-c2ccnc(n2)Nc2cccc(c2)CN2CCN(CC2)C(c2ccccc2)C1=O (stereo not shown) [Compound 64] | 2.63e-05 M | 7.24e-07 M | 64.6% | 
21 | O=C1NCCCNc2ccc(cn2)-c2ccnc(n2)Nc2cccc(c2)CN2CCN(CC2)C1CO (stereo not shown) [Compound 65] | 5.62e-06 M | 1.66e-07 M | 10.8% | 3.31e-07 M
22 | COCC1C(=O)NCCCNc2ccc(cn2)-c2ccnc(n2)Nc2cccc(c2)CN2CCN1CC2 (stereo not shown) [Compound 66] | 4.17e-06 M | 7.76e-08 M | 6.72% | 1.41e-07 M
23 | CC1C(=O)N(C)CCCN(C)c2ccc(cn2)-c2ccnc(n2)Nc2cccc(c2)CN2CCN1CC2 (stereo not shown) [Compound 67] | 3.89e-06 M | 1.29e-07 M | 32.1% | 
24 | O=C1CC2CN(CCN2)Cc2cccc(c2)Nc2nccc(n2)-c2ccc(nc2)NCCCN1 (stereo not shown) [Compound 70] | > 3.02e-05 M | 6.03e-06 M | 7.38% | 1.2e-08 M
25 | CN1CCN2Cc3cccc(c3)Nc3nccc(n3)-c3ccc(nc3)NCCCNC(=O)CC1C2 (stereo not shown) [Compound 71] | > 3.02e-05 M | 7.59e-06 M | 12% | 1.74e-08 M
26 | CN1CCN(C)c2ccc(cn2)-c2ccnc(n2)Nc2cccc(c2)CN2CCNC(CC1=O)C2 (stereo not shown) [Compound 72] | > 3.02e-05 M | 3.8e-06 M | 11.5% | 3.02e-07 M
27 | CN1CCN(C)c2ccc(cn2)-c2ccnc(n2)Nc2cccc(c2)CN2CCN(C)C(CC1=O)C2 (stereo not shown) [Compound 73] | > 3.02e-05 M | 1.82e-06 M | 19.6% | 4.07e-07 M
28 | CN1CCCN(C)c2ccc(cn2)-c2ccnc(n2)Nc2cccc(c2)CN2CCN(C)C(C2)C1=O (stereo not shown) [Compound 75] | > 3.02e-05 M | > 3.02e-05 M | 22.9% | 1.38e-06 M
29 | O=C1CN2CCN(CC2=O)Cc2cccc(c2)Nc2nccc(n2)-c2ccc(nc2)NCCCN1 [Compound 77] | > 3.02e-05 M | 2.09e-06 M | 6.27% | 1.29e-07 M
30 | CN1CCCNC(=O)CN2CCN(CC2=O)Cc2cccc(c2)Nc2nccc(n2)-c2ccc1nc2 [Compound 78] | > 3.02e-05 M | 1.2e-06 M | 7.48% | 1.32e-07 M
